Data: patent US5854204A, “Aβ peptides that modulate β-amyloid aggregation” (priority 1996, dated 1998)
Read-outs that look alike come from different tables or passages of the source. Numbered stars: 1 amine (or outer) side, 2 acyl side, 3 side chain; on linkers, the order of the positions; unused ones are H or OH. Square brackets hold non-standard residues; d marks the D form. Ends that are not written are not given here. Peptide text beside a SMILES is read from it. * marks the point of attachment. Cholyl = C[C@H](CCC(=O)*)[C@H]1CC[C@H]2[C@@H]3[C@H](O)C[C@@H]4C[C@H](O)CC[C@]4(C)[C@H]3C[C@H](O)[C@]12C; X2 = O=C(C1(O)C[C@H](O)[C@@H](N[*:1])[C@H]([C@H](O)[C@H](O)CO)O1)[*:2]; Tyr(3-I) = N[C@@H](Cc1ccc(O)c(I)c1)C(=O)O

Columns and labels:
Aβ1-40 [1] = target: T1, Aβ1-40 (Homo sapiens, UniProt P05067);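 also: Aβ nucleation assay tracking fiber polymerization from monomer by turbidity (light scattering), shaken continuously in 96-well plates, read every 15 min over 5 h, compared with compound-free control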
Excerpt: (§1) The nucleation assay is employed to determine the ability of test compounds to alter (e.g. inhibit) the early events in formation of β-AP fibers from monomeric β-AP. […] The time delay before polymerization of β-AP monomer can be quantified as well as the extent of formation of insoluble fiber by light scattering (turbidity). Polymerization reaches equilibrium when the maximum turbidity reaches a plateau. […] The threshold of sensitivity for the measurement of turbidity is in the range of 15-20 μM β-AP. […] This assay can be performed using stirring or shaking to accelerate polymerization, thereby increasing the speed of the assay. Moreover the assay can be adapted to a 96-well plate format to screen multiple compounds.
(§2) HFIP-solubilized peptide is sonicated in a waterbath sonicator for 5 min at highest setting, then evaporated to dryness under a stream of argon. […] Test compounds are dissolved in DMSO at a 100× concentration. […] Ten microliters of the mixture is then added to the bottom of a well of a Corning Costar ultra low binding 96-well plate (Corning Costar, Cambridge Mass.; cat. No. 2500). […] The plate is then returned to the shaker and shaken continuously for 5 hours. Turbidity readings are taken at 15 minute intervals.
(§3) Accordingly a fold increase in lag time of 1.0 indicates no change in lag time, whereas numbers >1.0 indicate an increase in lag time. The "% inhibition of plateau", which is a measure of the ability of the compound to decrease the total amount of aggregation, refers to the reduction of the final turbidity in the presence of the test compound expressed as a percent of the control without the test compound.

Aβ1-40 [2] = target: T1, Aβ1-40; experiment: biochemical; settings: read-out: % Inucl'n (percent reduction in maximum turbidity)
Excerpt: as §1, §2, §3

[3] = Table VI, unmodified peptides, 100 mole %

T1 sequence (P05067 672-711): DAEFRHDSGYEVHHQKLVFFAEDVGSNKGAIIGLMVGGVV

Row | Compound | % Inhibition of Plateau (Aβ1-40 [1]) | Fold Increase in Lag Time (Aβ1-40 [1]; [3]) | inhibition at 100 % (Aβ1-40 [2]) [%] | also measured
1 | CC[C@H](C)[C@H](NC(=O)[C@H](C)NC(=O)CNC(=O)[C@H](CCCCN)NC(=O)[C@H](CC(N)=O)NC(=O)[C@H](CO)NC(=O)[C@H](Cc1ccccc1)NC(=O)[C@H](Cc1ccccc1)NC(=O)[C@@H](NC(=O)[C@H](CC(C)C)NC(=O)[C@H](CCCCN)NC(=O)[C@H](CCC(N)=O)NC(=O)[C@H](Cc1c[nH]cn1)NC(=O)[C@H](Cc1c[nH]cn1)NC(=O)[C@@H](NC(=O)[C@H](CCC(=O)O)NC(=O)[C@H](Cc1ccc(O)cc1)NC(=O)CNC(=O)[C@H](CO)NC(=O)[C@H](CC(=O)O)NC(=O)[C@H](Cc1c[nH]cn1)NC(=O)[C@H](CCCNC(=N)N)NC(=O)[C@H](Cc1ccccc1)NC(=O)[C@H](CCC(=O)O)NC(=O)[C@H](C)NC(=O)[C@@H](N)CC(=O)O)C(C)C)C(C)C)C(=O)N[C@H](C(=O)NCC(=O)N[C@@H](CC(C)C)C(=O)N[C@@H](CCSC)C(=O)N[C@H](C(=O)NCC(=O)NCC(=O)N[C@H](C(=O)N[C@H](C(=O)O)C(C)C)C(C)C)C(C)C)[C@@H](C)CC [PPI-249, Aβ1-20, 26-40 (Δ21-25)] | ~ 0% | 2.37 fold | – | –
2 | CC[C@H](C)[C@H](NC(=O)[C@H](C)NC(=O)CNC(=O)[C@H](CCCCN)NC(=O)[C@H](CC(N)=O)NC(=O)[C@H](CO)NC(=O)CNC(=O)[C@@H](NC(=O)[C@H](CC(=O)O)NC(=O)[C@H](CCC(=O)O)NC(=O)[C@H](C)NC(=O)[C@H](CCC(N)=O)NC(=O)[C@H](Cc1c[nH]cn1)NC(=O)[C@H](Cc1c[nH]cn1)NC(=O)[C@@H](NC(=O)[C@H](CCC(=O)O)NC(=O)[C@H](Cc1ccc(O)cc1)NC(=O)CNC(=O)[C@H](CO)NC(=O)[C@H](CC(=O)O)NC(=O)[C@H](Cc1c[nH]cn1)NC(=O)[C@H](CCCNC(=N)N)NC(=O)[C@H](Cc1ccccc1)NC(=O)[C@H](CCC(=O)O)NC(=O)[C@H](C)NC(=O)[C@@H](N)CC(=O)O)C(C)C)C(C)C)C(=O)N[C@H](C(=O)NCC(=O)N[C@@H](CC(C)C)C(=O)N[C@@H](CCSC)C(=O)N[C@H](C(=O)NCC(=O)NCC(=O)N[C@H](C(=O)N[C@H](C(=O)O)C(C)C)C(C)C)C(C)C)[C@@H](C)CC [PPI-250, Aβ1-15, 21-40 (Δ16-20)] | ~ 0% | 1.55 fold | – | –
3 | CC[C@H](C)[C@H](NC(=O)[C@H](C)NC(=O)CNC(=O)[C@H](CCCCN)NC(=O)[C@H](CC(N)=O)NC(=O)[C@H](CO)NC(=O)CNC(=O)[C@@H](NC(=O)[C@H](CC(=O)O)NC(=O)[C@H](CCC(=O)O)NC(=O)[C@H](C)NC(=O)[C@H](Cc1ccccc1)NC(=O)[C@H](Cc1ccccc1)NC(=O)[C@@H](NC(=O)[C@H](CC(C)C)NC(=O)[C@H](CCCCN)NC(=O)[C@H](Cc1ccc(O)cc1)NC(=O)CNC(=O)[C@H](CO)NC(=O)[C@H](CC(=O)O)NC(=O)[C@H](Cc1c[nH]cn1)NC(=O)[C@H](CCCNC(=N)N)NC(=O)[C@H](Cc1ccccc1)NC(=O)[C@H](CCC(=O)O)NC(=O)[C@H](C)NC(=O)[C@@H](N)CC(=O)O)C(C)C)C(C)C)C(=O)N[C@H](C(=O)NCC(=O)N[C@@H](CC(C)C)C(=O)N[C@@H](CCSC)C(=O)N[C@H](C(=O)NCC(=O)NCC(=O)N[C@H](C(=O)N[C@H](C(=O)O)C(C)C)C(C)C)C(C)C)[C@@H](C)CC [PPI-251, Aβ1-10, 16-40 (Δ11-15)] | ~ 0% | ~ 1.2 fold | – | –
4 | C[C@H](CCC(=O)O)[C@H]1CC[C@H]2[C@@H]3[C@H](O)C[C@@H]4C[C@H](O)CC[C@]4(C)[C@H]3C[C@H](O)[C@]12C [PPI-293, Cholic acid, reference compound] | – | – | 0 | inhibitory activity on Aβ aggregation (Aβ1-40 [1]): had no effect on Aβ aggregation
5 | CC(C)C[C@H](NC(=O)[C@H](CCCCN)NC(=O)[C@H](CCC(N)=O)NC(=O)[C@H](Cc1c[nH]cn1)NC(=O)CC[C@@H](C)[C@H]1CC[C@H]2[C@@H]3[C@H](O)C[C@@H]4C[C@H](O)CC[C@]4(C)[C@H]3C[C@H](O)[C@]12C)C(=O)N[C@H](C(=O)N[C@@H](Cc1ccccc1)C(=O)N[C@@H](Cc1ccccc1)C(N)=O)C(C)C [PPI-315] (Cholyl-HQKLVFF-NH2) | – | – | – | inhibition at 33 % (Aβ1-40 [2]): 5%
6 | CC(=O)N[C@H]1[C@H]([C@H](O)[C@H](O)CO)OC(O)(C(=O)N[C@@H](Cc2c[nH]cn2)C(=O)N[C@@H](CCC(N)=O)C(=O)N[C@@H](CCCCN)C(=O)N[C@@H](CC(C)C)C(=O)N[C@H](C(=O)N[C@@H](Cc2ccccc2)C(=O)N[C@@H](Cc2ccccc2)C(N)=O)C(C)C)C[C@@H]1O (stereo partly shown) [PPI-316] (Ac-[X2]HQKLVFF-NH2) | – | – | -15 | –
7 | CC(C)C[C@H](NC(=O)[C@H](CCCCN)NC(=O)[C@H](CCC(N)=O)NC(=O)[C@H](Cc1c[nH]cn1)NC(=O)[C@H](Cc1c[nH]cn1)NC(=O)[C@@H](NC(=O)[C@H](CCC(=O)O)NC(=O)[C@H](Cc1ccc(O)cc1)NC(=O)CNC(=O)[C@H](CO)NC(=O)[C@H](CC(=O)O)NC(=O)[C@H](Cc1c[nH]cn1)NC(=O)CC[C@@H](C)[C@H]1CC[C@H]2[C@@H]3[C@H](O)C[C@@H]4C[C@H](O)CC[C@]4(C)[C@H]3C[C@H](O)[C@]12C)C(C)C)C(=O)N[C@H](C(=O)N[C@@H](Cc1ccccc1)C(N)=O)C(C)C [PPI-321] (Cholyl-HDSGYEVHHQKLVF-NH2) | – | – | – | inhibitory activity on Aβ aggregation (Aβ1-40 [1]): loss of inhibitory activity; Fold Increase in Lag Time (Aβ1-40 [1]; Table III, 33 mole %): 1.4 fold; Fold Increase in Lag Time (Aβ1-40 [1]; Table IV, 100 mole %): 1.2 fold
8 | CC(C)[C@H](NC(=O)[C@H](CCC(=O)O)NC(=O)[C@H](Cc1ccc(O)cc1)NC(=O)CNC(=O)[C@H](CO)NC(=O)[C@H](CC(=O)O)NC(=O)[C@H](Cc1c[nH]cn1)NC(=O)CC[C@@H](C)[C@H]1CC[C@H]2[C@@H]3[C@H](O)C[C@@H]4C[C@H](O)CC[C@]4(C)[C@H]3C[C@H](O)[C@]12C)C(=O)N[C@@H](Cc1c[nH]cn1)C(=O)N[C@@H](Cc1c[nH]cn1)C(N)=O [PPI-331] (Cholyl-HDSGYEVHH-NH2) | 29% | – | – | –
9 | C[C@H](CCC(=O)N[C@@H](Cc1c[nH]cn1)C(=O)N[C@@H](CC(=O)O)C(=O)N[C@@H](CO)C(=O)NCC(=O)N[C@@H](Cc1ccc(O)cc1)C(N)=O)[C@H]1CC[C@H]2[C@@H]3[C@H](O)C[C@@H]4C[C@H](O)CC[C@]4(C)[C@H]3C[C@H](O)[C@]12C [PPI-339] (Cholyl-HDSGY-NH2) | 13% | – | – | –
10 | CC(C)C[C@H](NC(=O)[C@H](CCCCN)NC(=O)[C@H](CCC(N)=O)NC(=O)[C@H](Cc1c[nH]cn1)NC(=O)[C@H](Cc1c[nH]cn1)NC(=O)[C@@H](NC(=O)CC[C@@H](C)[C@H]1CC[C@H]2[C@@H]3[C@H](O)C[C@@H]4C[C@H](O)CC[C@]4(C)[C@H]3C[C@H](O)[C@]12C)C(C)C)C(=O)N[C@H](C(=O)N[C@@H](Cc1ccccc1)C(=O)N[C@@H](Cc1ccccc1)C(=O)O)C(C)C [PPI-346] (Cholyl-VHHQKLVFF-OH) | ~ 0% | – | – | –
11 | CC(C)C[C@H](NC(=O)[C@H](CCCCN)NC(=O)[C@H](CCC(N)=O)NC(=O)CC[C@@H](C)[C@H]1CC[C@H]2[C@@H]3[C@H](O)C[C@@H]4C[C@H](O)CC[C@]4(C)[C@H]3C[C@H](O)[C@]12C)C(=O)N[C@H](C(=O)N[C@@H](Cc1ccccc1)C(=O)O)C(C)C [PPI-366] (Cholyl-QKLVF-OH) | ~ 0% | – | – | –
12 | CC(C)C[C@H](NC(=O)CC[C@@H](C)[C@H]1CC[C@H]2[C@@H]3[C@H](O)C[C@@H]4C[C@H](O)CC[C@]4(C)[C@H]3C[C@H](O)[C@]12C)C(=O)N[C@H](C(=O)N[C@@H](Cc1ccccc1)C(=O)N[C@@H](C)C(=O)N[C@@H](C)C(=O)O)C(C)C [PPI-391] (Cholyl-LVFAA-OH) | – | – | 40 | –
13 | CC(C)C[C@H](NC(=O)CC[C@@H](C)[C@H]1CC[C@H]2[C@@H]3[C@H](O)C[C@@H]4C[C@H](O)CC[C@]4(C)[C@H]3C[C@H](O)[C@]12C)C(=O)N[C@H](C(=O)N[C@@H](Cc1ccc(O)c(I)c1)C(=O)N[C@@H](Cc1ccccc1)C(=O)N[C@@H](C)C(=O)O)C(C)C [PPI-396] (Cholyl-LV[Tyr(3-I)]FA-OH) | – | – | 100 | –
14 | CC(C)C[C@H](NC(=O)CC[C@@H](C)[C@H]1CC[C@H]2[C@@H]3[C@H](O)C[C@@H]4C[C@H](O)CC[C@]4(C)[C@H]3C[C@H](O)[C@]12C)C(=O)N[C@H](C(=O)N[C@@H](Cc1ccccc1)C(=O)N[C@@H](Cc1ccc(O)c(I)c1)C(=O)N[C@@H](C)C(=O)O)C(C)C [PPI-397] (Cholyl-LVF[Tyr(3-I)]A-OH) | – | – | 95 | –
15 | CC(C)[C@H](NC(=O)[C@H](C)NC(=O)CC[C@@H](C)[C@H]1CC[C@H]2[C@@H]3[C@H](O)C[C@@H]4C[C@H](O)CC[C@]4(C)[C@H]3C[C@H](O)[C@]12C)C(=O)N[C@@H](C)C(=O)N[C@@H](Cc1ccccc1)C(=O)N[C@@H](C)C(=O)O [PPI-400] (Cholyl-AVAFA-OH) | – | – | -15 | –
16 | CC(C)C[C@H](NC(=O)CC[C@@H](C)[C@H]1CC[C@H]2[C@@H]3CC[C@@H]4C[C@H](O)CC[C@]4(C)[C@H]3C[C@H](O)[C@]12C)C(=O)N[C@H](C(=O)N[C@@H](Cc1ccccc1)C(=O)N[C@@H](Cc1ccccc1)C(=O)N[C@@H](C)C(=O)O)C(C)C [PPI-424] | – | – | – | % Inucl'n (percent reduction in maximum turbidity) (Aβ1-40 [1]): -114%
17 | CC(C)C[C@@H](NC(=O)CC[C@@H](C)[C@H]1CC[C@H]2[C@@H]3[C@H](O)C[C@@H]4C[C@H](O)CC[C@]4(C)[C@H]3C[C@H](O)[C@]12C)C(=O)N[C@@H](C(=O)N[C@H](Cc1ccccc1)C(=O)N[C@H](Cc1ccccc1)C(=O)N[C@H](C)C(=O)O)C(C)C [PPI-433] | – | – | 27 | –
18 | CC(C)C[C@H](NC(=O)OC(C)(C)C)C(=O)N[C@H](C(=O)N[C@@H](Cc1ccccc1)C(=O)N[C@@H](Cc1ccccc1)C(=O)N[C@@H](C)C(=O)O)C(C)C [PPI-435] | – | – | – | % Inucl'n (percent reduction in maximum turbidity) (Aβ1-40 [1]): -5%; ΔLag (ratio of lag time with test compound to lag time of control) (Aβ1-40 [1]; Table V, 100 mole % inhibitor relative to Aβ1-40): 3.0
19 | C[C@H](CCC(=O)NCC(=O)N[C@@H](Cc1ccccc1)C(=O)N[C@@H](Cc1ccccc1)C(=O)O)[C@H]1CC[C@H]2[C@@H]3[C@H](O)C[C@@H]4C[C@H](O)CC[C@]4(C)[C@H]3C[C@H](O)[C@]12C [PPI-438] | – | – | 0 | –
20 | AEDVGSNKGAIIGLM [PPI-229, Aβ21-35] | ~ 0% | ~ 1 fold | – | –
21 | HDSGYEVHHQKLVFF [PPI-226, Aβ6-20] | 76% | 1.66 fold | – | –
22 | KLVFFAEDVGSNKGA [PPI-228, Aβ16-30] | 100% | > 4.5 fold | – | –
23 | SNKGAIIGLMVGGVV [PPI-230, Aβ26-40] | ~ 0% | 0.8 fold | – | –
